Where a chain is given by its changes, count along the chain named.
Legend:
wild type AR = target: T1, wild type AR (Homo sapiens, UniProt P10275); assay: AR Binding Assay (whole cell, MDA-MB-453, competition with [3H]-DHT); details: MDA-MB-453 cells, competition with 2 nM [3H]-DHT, Cheng-Prusoff
T1 sequence (P10275 1-920 Q868H): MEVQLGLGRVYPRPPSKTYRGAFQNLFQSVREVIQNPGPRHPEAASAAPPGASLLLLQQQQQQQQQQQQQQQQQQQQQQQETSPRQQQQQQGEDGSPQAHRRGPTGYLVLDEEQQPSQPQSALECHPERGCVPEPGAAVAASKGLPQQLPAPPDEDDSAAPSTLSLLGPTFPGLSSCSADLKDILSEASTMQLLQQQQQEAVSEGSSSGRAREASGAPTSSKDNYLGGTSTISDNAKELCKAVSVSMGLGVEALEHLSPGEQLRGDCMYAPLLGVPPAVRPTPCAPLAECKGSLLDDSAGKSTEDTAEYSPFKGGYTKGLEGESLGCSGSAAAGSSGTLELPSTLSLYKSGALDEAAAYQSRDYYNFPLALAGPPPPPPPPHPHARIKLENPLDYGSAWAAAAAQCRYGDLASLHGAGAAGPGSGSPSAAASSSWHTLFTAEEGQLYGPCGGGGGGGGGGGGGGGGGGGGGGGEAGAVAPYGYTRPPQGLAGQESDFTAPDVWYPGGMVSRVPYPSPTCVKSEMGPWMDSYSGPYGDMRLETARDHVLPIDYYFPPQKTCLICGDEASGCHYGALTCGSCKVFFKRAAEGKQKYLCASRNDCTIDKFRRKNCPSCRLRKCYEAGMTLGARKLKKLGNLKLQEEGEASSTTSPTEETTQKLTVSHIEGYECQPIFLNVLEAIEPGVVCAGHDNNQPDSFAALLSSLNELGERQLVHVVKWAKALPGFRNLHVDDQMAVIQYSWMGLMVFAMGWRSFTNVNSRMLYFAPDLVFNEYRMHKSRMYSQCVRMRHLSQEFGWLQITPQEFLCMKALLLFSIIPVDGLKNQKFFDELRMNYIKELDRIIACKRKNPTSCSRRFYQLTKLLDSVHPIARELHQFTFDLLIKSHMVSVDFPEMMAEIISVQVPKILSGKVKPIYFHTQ
Experimental: For the whole cell binding assay, human breast adenocarcinoma MDA-MB-453 cells (American Type Culture Collection, Rockville, Md., ATCC #: HTB-131), expressing a functional endogenous wild type AR, are grown to near confluency in T-225 tissue culture flasks containing Dulbecco's Modified Eagle Medium (DMEM) (Mediatech CAT #45000-668) supplemented with 10% fetal bovine serum (FBS) (Invitrogen/GIBCO Life Science). In order to remove any endogenous ligand that might be complexed with the receptor in the cells, the tissue culture media is removed and the cells are incubated overnight at 37° C. in serum-free DMEM. The next day, cells are rinsed with magnesium and calcium free Phosphate Buffered Saline (PBS) (Invitrogen/GIBCO Life Science), harvested using Cell Stripper Buffer (Mediatech) and re-suspended in serum-free DMEM to achieve a final assay concentration of 4×10^5 cells/well of a 96-well assay plate. […] After the remaining media is removed, cells are washed three times with PBS and harvested onto UniFilter GF/B plates (PerkinElmer).
Two replicates are used for each sample. After 90 minutes at room temperature, cells are harvested by filtering through a GF/B filter plate (PerkinElmer) followed by washing with ice-cold 1×PBS (without calcium and magnesium) to remove unbound label. […] After correcting for non-specific binding, IC50 values are determined. The IC50 value is defined as the concentration of competing ligand needed to reduce specific binding by 50%. […] The Ki values are determined by application of the Cheng-Prusoff equation to the IC50 values where: […]
See e.g., D. Rodbard, Mathematics and Statistics of Ligand Assays: An Illustrated Guide: In: J. Langon and J. J. Clapp, eds., Ligand Assay, Masson Publishing U.S.A., Inc., New York, pp. 45-99 (1981).

androgen receptor (AR) = target: T2, androgen receptor (AR) (Homo sapiens, UniProt P10275); assay: MDA-MB-453 Androgen Receptor Transactivation Assay; type: cell-based; details: MDA-MB-453 cells, PSA-Luc reporter, 3 nM DHT, 48 hour incubation
T2 sequence (P10275 1-920): T1 sequence (P10275 1-920 Q868H) with H868Q
Source text: Compounds can be tested in a cell based transactivation assay used to measure the antagonism of androgen receptor (AR) transcriptional activity. […] The human breast adenocarcinoma MDA-MB-453 cell line (American Type Culture Collection, Rockville, Md., ATCC#: HTB-131), expressing a functional endogenous wild type AR, was transiently transfected with a reporter plasmid and tested for AR dependent transactivation activity in the absence or presence of test compounds. The pGL3 PSA-Luc reporter plasmid is comprised of the cDNA for the firefly luciferase gene and the upstream promoter sequences containing the androgen response elements (AREs) of the prostate specific antigen (PSA). This plasmid functions as a reporter for the transcription-modulating activity of the AR. In order to detect antagonists, the transactivation assay is conducted in the presence of constant concentration of the natural AR hormone (DHT) to induce a defined reporter signal. Addition of increasing concentrations of the suspected antagonist will decrease the reporter signal (luciferase activity).
MDA-MB-453 and 22 RV1 cells were maintained in DMEM (Cellgro, Cat. #10-014-CM) or RPMI 1640 (Gibco Cat. #11875-085) respectively and supplemented with 10% FBS (Invitrogen/GIBCO Life Science). Cells were bulk transfected in flasks with 1.3 ug/ml pGL3 PSA-Luc plasmid by using the Lipofectamine 2000 Reagent (Invitrogen, Cat. #11668-019) and serum-free Opti-MEM I media (Invitrogen, Cat#31985-070) according to the manufacturer's optimized conditions. Transfection was conducted at 37° C. with 5% CO2 for 16-18 hours. Following transfection, cells are washed, treated with trypsin, counted, and seeded in a 96-well plate at 30,000 cells per well in DMEM containing 10% Charcoal/Dextran Treated Fetal Bovine Serum (Gibco Cat. #11054-020) for MDA-MB-453 cells or RPMI 1640 (Gibco Cat. #110835) containing 10% FBS (Invitrogen/GIBCO Life Science) for 22 RV1 cells.
Following transfection, cells were incubated in the absence (blank) or presence (control) of 3 nM DHT (Sigma, Cat. #A-8380) and in the presence or absence of the standard antiandrogen bicalutamide or test compounds ranging in concentrations from 10^−10 to 10^−5M. Duplicates were used for each sample. The compound dilutions were performed by the Tecan Genesis (Tecan, Triangle Park, N.C.). After a 48 hour incubation, luciferase activity was measured using the Steady-Glo Luciferase Assay System (Promega, Cat. #E2550) according to manufacturer's specifications and luminescence was measured on a Packard TopCount (PerkinElmer). For each luciferase sample reading, the percent control (in absence of compounds) was calculated as: % Control=100×[averagesample−averageblank]/[averagecontrol−averageblank] Data was plotted and the IC50 value was defined as the concentration of compound that inhibited 50% of the luciferase activity for the controls.

SMILES: N#Cc1ccc(N2CC3C([C@@H]4CC[C@H]3O4)S2(=O)=O)cc1C(F)(F)F (stereo in doubt) [Example 6, 4-((1S,2R,6R,7R)-3,3-dioxido-10-oxa-3-thia-4-azatricyclo[5.2.1.0^2,6]dec-4-yl)-2-(trifluoromethyl)benzonitrile]
- Ki (wild type AR): 23 nM
- IC50 (androgen receptor (AR)): 198 nM

SMILES: C[C@]12CC[C@](C)(O1)[C@@H]1[C@H]2CN(c2ccc(C#N)c(C(F)(F)F)c2)S1(=O)=O (racemic) [Example 18, rac-4-((1R,2R,6R,7S)-1,7-dimethyl-3,3-dioxido-10-oxa-3-thia-4-azatricyclo[5.2.1.0^2,6]dec-4-yl)-2-(trifluoromethyl)benzonitrile]
- Ki (wild type AR): 222 nM
- IC50 (androgen receptor (AR)): 1350 nM

SMILES: N#Cc1ccc(N2C[C@@H]3[C@@H]([C@@H]4O[C@H]3C[C@@H]4O)S2(=O)=O)cc1C(F)(F)F (single isomer, unassigned) [Example 38ii]
- Ki (wild type AR): 10 nM
- IC50 (androgen receptor (AR)): 141 nM

SMILES: C[C@]12C=C[C@H](O1)[C@@H]1[C@H]2CN(c2ccc(C#N)c(C(F)(F)F)c2)S1(=O)=O (racemic) [Example 21i, rac-4-((1R,2R,6R,7S)-7-methyl-3,3-dioxido-10-oxa-3-thia-4-azatricyclo[5.2.1.0^2,6]dec-8-en-4-yl)-2-(trifluoromethyl)benzonitrile]
- Ki (wild type AR): 173 nM
- IC50 (androgen receptor (AR)): 1160 nM

SMILES: COC(=O)N[C@@H]1C[C@H]2O[C@@H]1[C@H]1[C@@H]2CN(c2ccc(C#N)c(C(F)(F)F)c2)S1(=O)=O [Example 41i, methyl((1S,2R,6R,7R,9R)-4-(4-cyano-3-(trifluoromethyl)phenyl)-3,3-dioxido-10-oxa-3-thia-4-azatricyclo[5.2.1.0^2,6]dec-9-yl)carbamate]
- Ki (wild type AR): 354 nM
- IC50 (androgen receptor (AR)): 8250 nM

SMILES: C[C@]12[C@H](CN(c3ccc(C#N)c(C(F)(F)F)c3)S1(=O)=O)[C@@H]1C=C[C@H]2O1 [Example 4, 4-((1R,2R,6R,7S)-2-methyl-3,3-dioxido-10-oxa-3-thia-4-azatricyclo[5.2.1.0^2,6]dec-8-en-4-yl)-2-(trifluoromethyl)benzonitrile]
- Ki (wild type AR): 221 nM
- IC50 (androgen receptor (AR)): 1420 nM

SMILES: N#Cc1ccc(N2C[C@H]3[C@@H]4O[C@@H](C[C@H]4O)[C@H]3S2(=O)=O)cc1C(F)(F)F (racemic) [Example 10iii]
- Ki (wild type AR): 568 nM
- IC50 (androgen receptor (AR)): 8320 nM

SMILES: N#Cc1ccc(N2C[C@H]3[C@@H]4O[C@@H](C[C@H]4O)[C@H]3S2(=O)=O)cc1C(F)(F)F (racemic) [Example 10ii, rac-4-((1R,2R,6R,7R,8S)-8-hydroxy-3,3-dioxido-10-oxa-3-thia-4-azatricyclo[5.2.1.0^2,6]dec-4-yl)-2-(trifluoromethyl)benzonitrile]
- Ki (wild type AR): 745 nM
- IC50 (androgen receptor (AR)): 7500 nM

SMILES: N#Cc1ccc(N2C[C@@H]3[C@@H]4O[C@@H](C[C@@H]4O)[C@@H]3S2(=O)=O)cc1C(F)(F)F (single isomer, unassigned) [Example 37i]
- Ki (wild type AR): 10 nM
- IC50 (androgen receptor (AR)): 154 nM

SMILES: N#Cc1ccc(N2C[C@@H]3[C@@H]([C@@H]4C=C[C@H]3O4)S2(=O)=O)cc1C(F)(F)F (racemic) [Example 1ii]
- Ki (wild type AR): 29 nM
- IC50 (androgen receptor (AR)): 108 nM

SMILES: N#Cc1ccc(N2C[C@H]3[C@H]4O[C@H]([C@@H]5O[C@@H]54)[C@H]3S2(=O)=O)cc1C(F)(F)F [Example 9, 4-((1R,2S,6S,7R,8R,10R)-3,3-dioxido-9,11-dioxa-3-thia-4-azatetracyclo[5.3.1.0^2,6.0^8,10]undec-4-yl)-2-(trifluoromethyl)benzonitrile]
- Ki (wild type AR): 92 nM
- IC50 (androgen receptor (AR)): 2640 nM

SMILES: COC(=O)N[C@@H]1C[C@@H]2O[C@H]1[C@@H]1CN(c3ccc(C#N)c(C(F)(F)F)c3)S(=O)(=O)[C@@H]12 (racemic) [Example 26i, methyl rac-((1R,2R,6R,7R,8S)-4-(4-cyano-3-(trifluoromethyl)phenyl)-3,3-dioxido-10-oxa-3-thia-4-azatricyclo[5.2.1.0^2,6]dec-8-yl)carbamate]
- Ki (wild type AR): 266 nM
- IC50 (androgen receptor (AR)): 3130 nM
